{"source": "patent US9125384B2", "about": "“Mouse having human leukemic stem cell and leukemic non-stem cell amplified therein, and method for production thereof” (RIKEN, priority 2007, dated 2015)", "key": {"[1]": {"system": "hCD34^+hCD38^− LSCs vs non-stem AML cell fractions", "assay": "Post-chemotherapy apoptosis analysis of BM AML cell fractions (Annexin V/7AAD flow cytometry)", "type": "in vivo, mouse (NOD/SCID/IL2rγ^null) engrafted with human AML", "conditions": "150 mg/kg Ara-C i.p.; BM at day 3 after injection; n=3; p<0.05", "experimental": "NOD/SCID/IL2rγ^null recipients transplanted with 10^4-10^5 sorted BM hCD34^+hCD38^− cells from Cases 4, 7 and 11 at 12-20 weeks post-transplantation were injected with 150 mg/kg Ara-C i.p. At day 3 after injection, BM was analyzed for the presence of apoptotic cells by first dividing the hCD34^+hCD38^−, hCD34^+hCD38^+ and hCD34^− fractions within the hCD45^+ gate and quantifying the viable population in each fraction by Annexin V and 7-amino-actinomycin D (7AAD) staining (BD Immunocytometry, San Jose, Calif.). Annexin V^−7AAD^− hCD45^+hCD34^+hCD38^− cells were sorted and 10^3 cells were injected intravenously into irradiated newborn NOD/SCID/IL2rγ^null recipients."}, "[2]": {"system": "human AML cells in BM cavity and endosteal surface", "assay": "Histology of femoral bone sections after Ara-C (HE, TUNEL, immunostaining)", "type": "in vivo, mouse (NOD/SCID/IL2rγ^null) engrafted with human AML", "conditions": "day 3 after Ara-C injection, anti-hCD34/hCD38/osteopontin staining", "experimental": "Paraformaldehyde-fixed, decalcified, paraffin-embedded sections were prepared from femurs of the recipients transplanted with sorted hCD34^+hCD38^− AML BM cells. Each section was subjected to hematoxylin and eosin (HE) staining. TUNEL staining was performed according to standard procedures using ApopTag peroxidase in situ apoptosis detection kit (Intergene, Purchase, N.Y.) by Biopathology Institute (Oita, Japan). To determine the localization of the CD34^+ cell populations, sections were immunostained with mouse anti-hCD34 antibody (Immunotech, France) and rat anti-mouse osteopontin antibody (Immuno-Biological Laboratories, Tokyo, Japan) were used. For the quantitative localization of LSCs, enodosteal and central regions were defined as the zones within or outside twelve cells from the endosteum, respectively, as described previously (Nilsson, S. K., Johnston, H. M. & Coverdale, J. A. Spatial localization of transplanted hemopoietic stem cells: inferences for the localization of stem cell niches. Blood 97, 2293-2299 (2001)). […] A total of 10,065 cells were counted from femoral and tibial sections. For localization post-engraftment analysis, a total of 24,973 cells were counted using femoral and tibial sections prepared from recipients of BM hCD34^+hCD38^− cells from Cases 4, 10 and 11. […]"}, "[3]": {"system": "human AML cells (hCD45^+hCD33^+)", "assay": "In vivo anti-leukemic cytotoxicity of Ara-C in AML-engrafted NOD/SCID/IL2rγ^null recipients (PB AML cell count)", "design": "species or system mouse (NOD/SCID/IL2rγ^null) engrafted with human AML"}, "[4]": {"assay": "Adverse effect of Ara-C in vivo (hemoglobin, platelet count, plasma AST)", "conditions": "150 mg/kg Ara-C i.p.; day 8 after injection", "experimental": "Intraperitoneal (i.p.) injection of 150 mg/kg Ara-C (Biogenesis, Poole, UK) was performed in NOD/SCID/IL2rγ^null recipients transplanted with 10^4 purified BM […] cells from Cases 4 (n=2) and 7 (n=4) at 12-16 weeks post-transplantation. PB was obtained at the time of injection (day 0) and every four days thereafter and MNCs were labeled with mouse anti-hCD45 and anti-hCD33 monoclonal antibodies to determine the fraction of hCD45^+hCD33^+ cells using flow cytometry. The number of AML cells/ml PB was determined by multiplying the fraction of PB hCD45^+CD33^+ cells with total PB leukocyte count/ml in each recipient. Hemoglobin concentration, platelet count and plasma aspartate aminotransferase (AST) levels were analyzed prior to and at 8 days after Ara-C administration."}}, "note": "Where “and” joins values, the source holds several entries; their conditions need not be identical. Equal values may be shown once. Entries after “also recorded” stand apart in the source; their conditions may differ.", "data": [{"compound": "Nc1ccn([C@@H]2O[C@H](CO)[C@@H](O)[C@@H]2O)c(=O)n1", "note": "[Ara-C, cytosine arabinoside]", "values": [{"measurement": "chemosensitivity of hCD34^+hCD38^− LSCs compared with non-stem AML cell fractions (apoptosis)", "setting": "[1]", "value": "relative resistance to Ara-C; also recorded: more resistant to Ara-C; also recorded: relatively resistant to Ara-C treatment"}, {"measurement": "localization of apoptotic and surviving cells in femoral bone sections", "setting": "[2]", "value": "preferential killing of cells in the middle of the BM cavity; also recorded: remain at the endosteal surface abutting murine osteoblasts; also recorded: marked segregation of apoptotic cells in the center of the bone marrow cavity"}, {"measurement": "time of nadir of AML count", "setting": "[3]; single 150 mg/kg Ara-C i.p. on day 0, PB", "value": "8 to 12", "unit": "days"}, {"measurement": "time of recovery of PB AML cell count (relapse)", "setting": "[3]; single 150 mg/kg Ara-C i.p. on day 0, PB, 150 mg/kg", "value": "28 to 32 days and 16 to 28 days"}, {"measurement": "PB AML burden (hCD45^+hCD33^+ cell count per ml of PB)", "setting": "[3]; single 150 mg/kg Ara-C i.p., 12-16 weeks post-transplantation, monitored every four days, 150 mg/kg", "value": "rapid decline in AML burden; also recorded: markedly reduced"}, {"measurement": "hematologic adverse effects (hemoglobin concentration, platelet count)", "setting": "[4]", "value": "Typical hematologic adverse effects; also recorded: anemia and thrombocytopenia in all treated mice"}]}]}
